In patent publication US8440660B2 (Santen Pharmaceutical Co., Ltd., priority 2006, dated 2013) one finds inhibition data, which are given here for 20 molecules.

This assay deals with T1, Glucocorticoid Receptor (GR) (Homo sapiens, UniProt P04150).
T1 construct: purchased Invitrogen P2816
T1 sequence (P04150 1-777): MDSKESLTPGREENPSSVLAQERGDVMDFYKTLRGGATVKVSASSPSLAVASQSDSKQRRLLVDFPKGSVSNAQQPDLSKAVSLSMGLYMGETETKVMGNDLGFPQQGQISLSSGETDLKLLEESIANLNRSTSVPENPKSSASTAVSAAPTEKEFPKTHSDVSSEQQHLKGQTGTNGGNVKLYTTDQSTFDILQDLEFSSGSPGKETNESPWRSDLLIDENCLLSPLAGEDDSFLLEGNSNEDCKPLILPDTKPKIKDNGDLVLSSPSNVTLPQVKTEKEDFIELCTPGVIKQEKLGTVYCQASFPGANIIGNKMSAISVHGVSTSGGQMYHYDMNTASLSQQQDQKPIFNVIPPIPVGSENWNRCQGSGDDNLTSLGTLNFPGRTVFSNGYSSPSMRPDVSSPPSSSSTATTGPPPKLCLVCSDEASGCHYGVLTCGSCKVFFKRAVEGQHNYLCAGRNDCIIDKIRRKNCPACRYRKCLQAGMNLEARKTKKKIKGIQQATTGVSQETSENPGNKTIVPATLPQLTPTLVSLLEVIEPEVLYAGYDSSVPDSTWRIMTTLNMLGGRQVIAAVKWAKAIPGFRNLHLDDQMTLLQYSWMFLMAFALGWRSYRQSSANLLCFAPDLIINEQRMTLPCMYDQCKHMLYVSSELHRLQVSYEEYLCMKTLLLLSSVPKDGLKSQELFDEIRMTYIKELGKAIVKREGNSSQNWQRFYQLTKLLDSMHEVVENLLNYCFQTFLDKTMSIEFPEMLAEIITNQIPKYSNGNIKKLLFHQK
The assay can be described thus: GR receptor competitor assay by fluorescence polarization (Invitrogen GR competitor assay kit, cat No. P2816). The settings on record: 20 μM test compound solution, 10 μL per well plus 5 μL 4×GS1 and 5 μL 4×GR solution; recombinant human GR; 2 to 4 hours at room temperature; a ratio of 100% or more is indicated by 100%; read-out: GR Binding ratio (%). As for the experimental part: A detailed explanation of this matter will be described in the section of “Pharmacological Test” in Examples described below. In order to find the usefulness of the present compound as a pharmaceutical, a glucocorticoid receptor competitor assay was carried out by a fluorescence polarization method by using a glucocorticoid receptor competitor assay kit (manufactured by Invitrogen, cat No P2816) to study the glucocorticoid receptor binding activity of the present compound.
1. Evaluation Test for Binding Activity to Glucocorticoid Receptor (Hereinafter Referred to as “GR”)
In order to evaluate a binding activity to GR, a receptor competitor assay was carried out by a fluorescence polarization method. In the assay, a GR competitor assay kit (manufactured by Invitrogen, cat No. P2816) was used, and a procedure was carried out according to the protocol attached to the kit. Hereinafter, the specific method will be described.
(Preparation of Reagents)
GR screening buffer: A buffer containing 10 mM potassium phosphate (pH 7.4), 20 mM sodium molybdate (Na2MoO4), 0.1 mM ethylene diamine tetraacetic acid (EDTA), 5 mM dithiothreitol (DTT), 0.1 mM stabilizing peptide and 2% dimethylsulfoxide was prepared.
4×GS1 solution: Fluormone™ GS1, which is a fluorescent glucocorticoid ligand, was diluted with GR screening buffer, whereby a 4 nM solution was prepared.
4×GR solution: Recombinant human GR was diluted with GR screening buffer, whereby a 16 nM solution was prepared.
(Preparation of Test Compound Solution)
After a test compound was dissolved in dimethylsulfoxide, the resulting solution was diluted with GR screening buffer, whereby a 20 μM test compound solution was prepared.
(Test Method and Measurement Method)
1) The test compound solution was added in an amount of 10 μL into each well of a 384-well plate, and then, 4×GS1 solution and 4×GR solution were added in an amount of 5 μL into each well, respectively.
2) The plate was incubated in a dark place at room temperature for 2 to 4 hours.
3) By using a multimode plate reader, Analyst™ HT (manufactured by LJL Biosystems), fluorescence polarization of each well was measured. As the blank, a well containing GR screening buffer in place of the test compound and 4×GS1 solution was used.
4) The same procedure as that in the above 1) to 3) was carried out except that GR screening buffer was used in place of the test compound solution, and the obtained result was taken as the negative control.
5) The same procedure as that in the above 1) to 3) was carried out except that 2 mM dexamethasone was used in place of the test compound solution, and the obtained result was taken as the positive control.
(Calculation Equation of GR Binding Ratio)
A GR binding ratio (%) was calculated from the following equation. GR binding ratio (%)=100×[1−(fluorescence polarization of test compound solution−fluorescence polarization of positive control solution)/(fluorescence polarization of negative control solution−fluorescence polarization of positive control solution)] (Test Results and Discussion)

`COc1cc(OC(=O)c2ccncc2)ccc1-c1ccc2c(c1COc1cc(F)ccc1C)C(C)=CC(C)(C)N2` [Compound 1-43, 5-(5-Fluoro-2-methylphenoxymethyl)-6-[2-methoxy-4-(pyridin-4-ylcarbonyloxy)phenyl]-2,2,4-trimethyl-1,2-dihydroquinoline]: the inhibition at 10 µM stood at 100%. For `COc1ccc(OC(=O)c2ccccn2)cc1-c1ccc2c(c1COc1cc(F)ccc1C)C(C)=CC(C)(C)N2` [Compound 1-44, 5-(5-Fluoro-2-methylphenoxymethyl)-6-[2-methoxy-5-(pyridin-2-ylcarbonyloxy)phenyl]-2,2,4-trimethyl-1,2-dihydroquinoline] the value was 100%; for `COc1ccc(OC(=O)c2ccncc2)cc1-c1ccc2c(c1COc1cc(F)ccc1C)C(C)=CC(C)(C)N2` [Compound 1-45, 5-(5-Fluoro-2-methylphenoxymethyl)-6-[2-methoxy-5-(pyridin-4-ylcarbonyloxy)phenyl]-2,2,4-trimethyl-1,2-dihydroquinoline], 95%; for `COc1cc(OC(=O)c2ccccc2OC(C)=O)ccc1-c1ccc2c(c1COc1cc(F)ccc1C)C(C)=CC(C)(C)N2` [Compound 1-50, 6-[4-(2-Acetoxybenzoyloxy)-2-methoxyphenyl]-5-(5-fluoro-2-methylphenoxymethyl)-2,2,4-trimethyl-1,2-dihydroquinoline], 97%. With `COc1cc(OC(=O)C2CCN(C(=O)OC(C)(C)C)CC2)ccc1-c1ccc2c(c1COc1cc(F)ccc1C)C(C)=CC(C)(C)N2` [Compound 1-51, 6-[4-(1-t-Butoxycarbonylpiperidin-4-ylcarbonyloxy)-2-methoxyphenyl]-5-(5-fluoro-2-methylphenoxymethyl)-2,2,4-trimethyl-1,2-dihydroquinoline] the figure was 91%; with `COc1cc(OC(=O)c2ccccc2SC)ccc1-c1ccc2c(c1COc1cc(F)ccc1C)C(C)=CC(C)(C)N2` [Compound 1-52], 96%; with `COc1cc(OC(=O)c2cn(C(=O)OC(C)(C)C)cn2)ccc1-c1ccc2c(c1COc1cc(F)ccc1C)C(C)=CC(C)(C)N2` [Compound 1-53, 6-[4-(1-t-Butoxycarbonylimidazol-4-ylcarbonyloxy)-2-methoxyphenyl]-5-(5-fluoro-2-methylphenoxymethyl)-2,2,4-trimethyl-1,2-dihydroquinoline], 100%. For `COc1cc(OC(=O)c2cscn2)ccc1-c1ccc2c(c1COc1cc(F)ccc1C)C(C)=CC(C)(C)N2` [Compound 1-54, 5-(5-Fluoro-2-methylphenoxymethyl)-6-[2-methoxy-4-(thiazol-4-ylcarbonyloxy)phenyl]-2,2,4-trimethyl-1,2-dihydroquinoline] the value was 100%. Consider `COc1cc(OC(=O)c2cncs2)ccc1-c1ccc2c(c1COc1cc(F)ccc1C)C(C)=CC(C)(C)N2` [Compound 1-55, 5-(5-Fluoro-2-methylphenoxymethyl)-6-[2-methoxy-4-(thiazol-5-ylcarbonyloxy)phenyl]-2,2,4-trimethyl-1,2-dihydroquinoline], for which the inhibition at 10 µM is 100%. In the case of `COc1cc(OC(=O)c2cocn2)ccc1-c1ccc2c(c1COc1cc(F)ccc1C)C(C)=CC(C)(C)N2` [Compound 1-56, 5-(5-Fluoro-2-methylphenoxymethyl)-6-[2-methoxy-4-(oxazol-4-ylcarbonyloxy)phenyl]-2,2,4-trimethyl-1,2-dihydroquinoline], the inhibition at 10 µM was found to be 100%.

With `COc1cc(OC(=O)c2cccc(C(C)=O)c2)ccc1-c1ccc2c(c1COc1cc(F)ccc1C)C(C)=CC(C)(C)N2` [Compound 1-58, 6-[4-(3-Acetylbenzoyloxy)-2-methoxyphenyl]-5-(5-fluoro-2-methylphenoxymethyl)-2,2,4-trimethyl-1,2-dihydroquinoline], the inhibition at 10 µM was 100%. With `COc1cc(OC(=O)c2ccccc2F)ccc1-c1ccc2c(c1COc1cc(F)ccc1C)C(C)=CC(C)(C)N2` [Compound 1-59, 6-[4-(2-Fluorobenzoyloxy)-2-methoxyphenyl]-5-(5-fluoro-2-methylphenoxymethyl)-2,2,4-trimethyl-1,2-dihydroquinoline] the figure was 100%; with `COc1cc(OC(=O)c2cccc(F)c2)ccc1-c1ccc2c(c1COc1cc(F)ccc1C)C(C)=CC(C)(C)N2` [Compound 1-60, 6-[4-(3-Fluorobenzoyloxy)-2-methoxyphenyl]-5-(5-fluoro-2-methylphenoxymethyl)-2,2,4-trimethyl-1,2-dihydroquinoline], 100%. As for `COc1cc(OC(=O)c2ccc(C)o2)ccc1-c1ccc2c(c1COc1cc(F)ccc1C)C(C)=CC(C)(C)N2` [Compound 1-62, 5-(5-Fluoro-2-methylphenoxymethyl)-6-[2-methoxy-4-(5-methylfuran-2-ylcarbonyloxy)phenyl]-2,2,4-trimethyl-1,2-dihydroquinoline], the inhibition at 10 µM stood at 100%.

As to `COc1cc(OC(=O)c2cccnc2C)ccc1-c1ccc2c(c1COc1cc(F)ccc1C)C(C)=CC(C)(C)N2` [Compound 1-63, 5-(5-Fluoro-2-methylphenoxymethyl)-6-[2-methoxy-4-(2-methylpyridin-3-ylcarbonyloxy)phenyl]-2,2,4-trimethyl-1,2-dihydroquinoline], the inhibition at 10 µM turned out to be 100%.

In the case of `COc1cc(OC(=O)Cc2cccnc2)ccc1-c1ccc2c(c1COc1cc(F)ccc1C)C(C)=CC(C)(C)N2` [Compound 1-64, 5-(5-Fluoro-2-methylphenoxymethyl)-6-[2-methoxy-4-(pyridin-3-ylacetoxy)phenyl]-2,2,4-trimethyl-1,2-dihydroquinoline], the inhibition at 10 µM is 100%. With `COc1cc(OC(=O)c2ccc(C(C)=O)cc2)ccc1-c1ccc2c(c1COc1cc(F)ccc1C)C(C)=CC(C)(C)N2` [Compound 1-67, 6-[4-(4-Acetylbenzoyloxy)-2-methoxyphenyl]-5-(5-fluoro-2-methylphenoxymethyl)-2,2,4-trimethyl-1,2-dihydroquinoline] the figure was 100%. For `COC(=O)c1cccc(C(=O)Oc2ccc(-c3ccc4c(c3COc3cc(F)ccc3C)C(C)=CC(C)(C)N4)c(OC)c2)c1` [Compound 1-68, 5-(5-Fluoro-2-methylphenoxymethyl)-6-[2-methoxy-4-(3-methoxycarbonylbenzoyloxy)phenyl]-2,2,4-trimethyl-1,2-dihydroquinoline], the inhibition at 10 µM was determined as 100%. For `COc1cc(OC(=O)c2ccc(C)nc2)ccc1-c1ccc2c(c1COc1cc(F)ccc1C)C(C)=CC(C)(C)N2` [Compound 1-69, 5-(5-Fluoro-2-methylphenoxymethyl)-6-[2-methoxy-4-(6-methylpyridin-3-ylcarbonyloxy)phenyl]-2,2,4-trimethyl-1,2-dihydroquinoline] the value was 100%. For `COc1cc(OC(=O)c2cnccc2C)ccc1-c1ccc2c(c1COc1cc(F)ccc1C)C(C)=CC(C)(C)N2` [Compound 1-70, 5-(5-Fluoro-2-methylphenoxymethyl)-6-[2-methoxy-4-(4-methylpyridin-3-ylcarbonyloxy)phenyl]-2,2,4-trimethyl-1,2-dihydroquinoline] the value was 100%.
